In assay [1] the test system is Demodex mites. Briefly: Preliminary in-vitro screening of monomer compounds for effect on survival time of Demodex mites. Set-up: species or system D. folliculorum. The conditions noted are these: 20° C., humidity 96%; for Survival time: in vitro, 35 µL monomer compound solution in 10% DMSO, mean ± SD; for in-vitro survival time of Demodex mites compared with the negative control group receiving 10% DMSO solution: in words. How it is done:
The powders of the monomer compounds shown in Table 2 were separately dissolved in dimethyl sulfoxide (DMSO), and then diluted with sterilized double-distilled water to make the final concentration of DMSO 10%, which could not shorten the survival time of Demodex mites as per a controlled study. The negative control group received DMSO mixed with sterilized water at a final concentration of 10%.
As in Example 1, 35 µL of each solution was added to a glass slide, and the survival of the mites was observed under an optical microscope every 2 hours. During the experiment, the Demodex mites were observed by two skilled operators separately for the activities (bodies, limbs and the like) through the microscope to determine whether they were dead or not. If the two operators gave different results, the survival status was determined independently by a third skilled operator. The in-vitro culture was conducted in a climatic chamber at a temperature of 20° C. and a humidity of 96%. During the observation, the glass slides were transported in a wet box to ensure the high humidity.
In this experiment, statistical analysis was conducted using SPSS22.0 statistical software, normality test was conducted using Shapiro-Wilk test, and homogeneity of variance test was conducted using Bartlett’s test.
Effects of monomer compounds of traditional Chinese medicine on survival time of D. folliculorum The in-vitro culture of the Demodex mites was conducted in an environment at a humidity of 96% and a temperature of 20° C. The survival of the Demodex mites was observed dynamically and the survival time was recorded.

Assay [2] relates to Demodex mites. Briefly: In-vitro culture of Demodex mites with traditional Chinese medicine decoctions: survival time. Details: species or system D. folliculorum. Particulars: 20° C., humidity 96%. How it is done: The detection of Demodex mites was performed according to the conventional method of eyelash microscopy (12,20). 3 eyelashes were collected from each eyelid, with a total of 12 eyelashes. The collected eyelashes were immediately placed on glass slides with three eyelashes on each glass slide, and the glass slides were examined under a common optical microscope for observation. Demodex mites in all periods were counted and classified according to morphology (specific standard: D. brevis with a head-to-body ratio of 1:1, and D. folliculorum with a head-to-body ratio of 1:3 to 1:4). […]
On the basis of the above detection of Demodex mites, 35 µL of the solutions was separately added to the slides, and the survival of the mites was observed every 2 hours. […] If the two operators gave different results, the survival status was determined independently by a third skilled operator. […]
60 g of dried ready-to-use forms was weighed using an electronic balance, and soaked in water with an amount of 10 times (600 mL) in a marmite overnight. […]
The in-vitro culture of the Demodex mites was conducted in an environment at a humidity of 96% and a temperature of 20° C. The survival of the Demodex mites was observed dynamically and the survival time was recorded.

Entries after “also recorded” stand apart in the source; their conditions may differ.

Consider `O=C(O)/C=C/c1ccc(O)c(O)c1` [Caffeic acid], for which the “Survival time” value in the assay on Demodex mites [1] came to 66.45 ± 24.24 h.

Turning to `COc1ccc(-c2cc(=O)c3c(O)cc(O)cc3o2)cc1O` [Diosmetin], the “in-vitro survival time of Demodex mites compared with the negative control group receiving 10% DMSO solution” value in the assay with Demodex mites [1] is recorded as “significantly shorter; also recorded: can significantly shorten the survival time of the mites”.

`CC1=CCC(O)(C(C)C)CC1` (stereo not shown) [T4O, terpinen-4-ol]: in the assay with Demodex mites [2] (in vitro, 35 µL solution on slide, decoction 60 g in 100 mL, TTO and T4O 10% in sterilized water, mean ± SD), the “Survival time” value stood at 40.50 ± 13.12 h. Further, in the assay on Demodex mites [2] (in words), the “in-vitro survival time of Demodex mites compared with the negative control (sterilized water)” value is recorded as “did not show significant differences”.

`C=C1CC[C@]2(C)CC[C@]3(C)[C@H](CC[C@@H]4[C@@]5(C)CC[C@H](OC(C)=O)C(C)(C)[C@@H]5CC[C@]43C)[C@H]2[C@@H]1C` [Taraxasterol acetate]: in the assay with Demodex mites [1], the “Survival time” value came out at 37.91 ± 20.96 h and the “in-vitro survival time of Demodex mites compared with the negative control group receiving 10% DMSO solution” value is given as “significantly shorter; also recorded: can significantly shorten the survival time of the mites”.

As for `CC1(C)CC[C@]2(C)CC=C3[C@]4(C)CC[C@H]5C(C)(C)[C@@H](O)CC[C@]5(C)[C@H]4CC[C@@]3(C)[C@@H]2C1` [Taraxerol], the “in-vitro survival time of Demodex mites compared with the negative control group receiving 10% DMSO solution” value with Demodex mites [1] was “significantly shorter; also recorded: can significantly shorten the survival time of the mites”.
